Experimental data as given in patent publication US11241501B2, “Anticancer prodrug for overcoming drug resistance” (Korea University Research and Business Foundation, priority 2018, dated 2022).

Tests used:
MCF7/Dox cells [1] = test: Intracellular ATP, lactate levels and glucose uptake; type: cell-based, human
Procedure: (§1) Fluorescence intensities were measured with SpectraMAX 13. Data represent means±SD. **p<0.01. […] Data represent means±SD. **[…]. […] Data represent the mean±SD (n=3 experimental replicates). *p<0.05, **p<0.01. […] MCF7/Dox cells were treated with C1 or C3 as indicated, and the cytosolic (C) and mitochondrial (M) fractions were subjected to immunoblot assay. COX-IV and tubulin were used as markers for the mitochondria and cytosol fractions, respectively.
Intracellular ATP levels were measured using an ATP Bioluminescence Assay Kit HSII (Roche Applied Science). Briefly, after the indicated treatment times for the test compound in question, cells were lysed with boiling lysis reagent and the supernatant was collected. […] of luciferin/Luciferase reagents. Luminescence was measured using Luminoskan Ascent (Thermo Scientific). Results were normalized to cell number. Intracellular L(+)-lactate level was measured using a lactate assay kit (BioVision). Cells were suspended with lactate assay buffer and incubated in the presence of the reaction mixture for 30 min. The lactate was quantified by measuring the absorbance at 570 nm using a Bio-Rad 680 microplate reader (Bio-Rad). For the glucose uptake assay, 2×10^5 cells were incubated in the presence of 20 mmol/L of 2-NBDG (2-[N-(7-nitrobenz-2-oxa-1,3-diazol-4-yl)amino]-2-deoxy-d-glucose; N13195; Invitrogen) for 2 h. The cells were re-suspended in cold growth medium and stained with propidium iodide. Samples were maintained on ice and analyzed via flow cytometry (Becton Dickinson).

MCF7 and MCF7/Dox cells = test: Mitochondrial localization in MCF7 and MCF7/Dox cells; type: cell-based, human
Source text: Mito-tracker (green) was utilized to show the mitochondria;

[2] = tested on: cancer cells (A549 and HepG2), normal cells (NHDF and IMR90); test: Cellular uptake of compounds in normal and cancer cells; type: cell-based, human; conditions: 5 μM, 6 h, A549, HepG2 vs NHDF
Procedure: Cells were treated with 5 μM of each compound for 6 h. Fluorescence intensities were determined using SpectraMAX 13;
To analyze the cellular fluorescence levels upon compound treatment, cells were seeded in plates 1 day before treatment with the compounds. Cells were then treated with each compound for the indicated dose or time course. After the experiment, cells were washed with ice-cold PBS, trypsinized, and centrifuged. The cell pellet was re-suspended in 300 μL of PBS and then analyzed using a multiplate reader (SpectraMAX I3x). The results were normalized according to the number of cells.

MCF7/Dox cells [3] = test: Colony formation assay; type: cell-based, human; conditions: 10 days
Procedure: as §1
(§2) Cells were seeded in 24 well plates at 2×10^5 cells per well and were allowed to adhere for at least 24 h, growth medium was replaced with medium containing C1 or its analogues at the indicated concentrations and times, and cell viability was assessed via the WST-1 assay (Roche Diagnostics, Laval, QC, Canada). For the colony formation assay, cells were seeded in 6-well plates. After 24 h, cells were maintained in the presence of each probe or vehicle dimethyl sulfoxide (DMSO) for 10 days. Colonies were fixed with methanol for 10 min and stained with 0.05% crystal violet in 20% ethanol.

MCF7 cell line = test: Cell viability, C1 versus Dox+DCA; type: cell-based, human
Procedure: as §2, with “Data represent the mean±SD. *p<0.05. […] Cells” for “Cells”

MCF7/Dox cells [4] = test: Cell viability, C1 versus Dox+DCA; type: cell-based, human; conditions: resistant MCF7/Dox cells
Procedure: as §2, with “Data represent the mean±SD. *p<0.05. […] Cells” for “Cells”

[5] = tested on: MCF7/Dox xenograft tumors; test: Independent comparative xenograft study of C1-C4; type: in vivo, mice; conditions: n=5 per group, FIG. 23C
Source text: Tumors are shown (right). […] C1 injection led to a 58% reduction in tumor growth, which was statistically greater than the reductions seen in the case of C2 (16%), C3 (9%), C4 (6%) and DMSO (0%) tested under otherwise identical conditions.

carboxylesterase = test: Carboxylesterase activation, fluorescence response and Dox release; type: biochemical
Procedure: The change in fluorescence intensity is directly related to active Dox release from C1.
FIG. 8 is a bar diagram representing the fluorescence intensity of C1 (5 μM) recorded at 570 nm after 4 h incubation in the presence or absence of carboxylesterase (1 U/ml), and various biological analytes, including amino acids (100 μM), thiols (10 mM, each), and reactive oxygen species (ROS) (200 μM, each) (Excitation at 470 nm). 1) C1 only, 2) L-proline, 3) L-ascorbic acid, 4) L-glutamic acid, 5) nicotinamide adenine dinucleotide (NADH), 6) pepsin, 7) acetylcholinesterase (AChE), 8) butyrylcholinesterase (BChE), 9) L-glutathione, 10) H2O2, 11) hypochlorite ion (OCl^−) 12) C1+esterase;
The maximal fluorescence intensity was recorded after 4 h. […] Note: The change in fluorescence intensity is considered to be proportional to the quantity of active Dox release from […]. […]
To gain further insight into the preliminary stability and activation of conjugates containing DCA, Dox, and a TPP cation targeting entity, both the target conjugate C1 and the control system C3 (an analog of C1 lacking the chloromethyl groups present in DCA; cf. FIG. 1) were prepared. […] Further support for the release of free Dox under these conditions came from time-dependent fluorescence experiments, HPLC, and liquid chromatography-mass spectrometry (FIG. 2B and FIG. 2C, and FIG. 7). […]

Compound: COc1cccc2c1C(=O)c1c(O)c3c(c(O)c1C2=O)C[C@@](O)(C(=O)CO)C[C@@H]3OC1C[C@H](NC(=O)OC(Cc2cn(CCCCCC[P+](c3ccccc3)(c3ccccc3)c3ccccc3)nn2)c2ccc(NC(=O)C(Cl)Cl)cc2)[C@H](O)[C@H](C)O1.[Br-] (some centres unmarked) [C1]
- glucose uptake (MCF7/Dox cells [1]): decreased glucose uptake
- intracellular ATP levels (MCF7/Dox cells [1]): lowered intracellular ATP levels
- intracellular lactate levels (MCF7/Dox cells [1]): dose-dependent reduction of intracellular lactate levels
- mitochondrial localization (MCF7 and MCF7/Dox cells): exhibited mitochondrial localization in both MCF7 and MCF7/Dox cells
- tumor cell selectivity of cellular uptake [2]: taken up specifically by cancer cells
- colony-forming ability (MCF7/Dox cells [3]): strong inhibitory effect
- reduction in cell viability (MCF7 cell line): comparable reduction in cell viability
- cytotoxic effect (MCF7/Dox cells [4]): appreciable cytotoxic effect
- reduction in tumor growth [5]: 58%
- fluorescence response to various amino acids, enzymes and biomolecules versus esterase (carboxylesterase; 590 nm emission, 4 h incubation): large fluorescence enhancements in the 590 nm emission feature were observed upon treatment with the esterase but not in its absence
- response to carboxylesterase (bond scission, Dox release) (carboxylesterase; carboxylesterase 1 U/mL, PBS, 37° C.): scission of the aniline-amide bond and release of Dox
